According to patent US12171909B2, “Implants having a drug load of an oxysterol and methods of use” (WARSAW ORTHOPEDIC, INC., priority 2015, dated 2024):

Experiments:
[1] = solubility in water; type: physicochemical
Excerpt: The Oxy133 can be solubilized in a non-aqueous solvent, such as for example, ethanol and mixed into a solution or suspension. In some embodiments, the Oxy 133 can be filtered by passing the Oxy 133 and solvent through a filter (e.g., 0.22 microns). This will remove bacteria and other larger-size particulates out of the composition. The Oxy 133 used in the composition can be micronized before it is mixed with solvents and other excipients. In various embodiments, the particle size of the Oxy 133 can range from about 1 micron to 250 microns. In some embodiments, the Oxy 133 can have a particle size of from about 5 microns to about 100 microns or from about 20 to 50 microns. The Oxy 133 in the solution or suspension can be added to a slurry of biodegradable polymer and/or the ceramic particles, mixed and, then optionally dried.

[2] = test system: rat two-level spine model; assay: posterolateral spinal fusion in a rat two-level spine model (radiographs, manual palpation); type: in vivo; settings: for spinal fusion (figure legend): bone growth at 4 and 8 weeks, fusion confirmed by manual palpation at 8 weeks; for bridging bone on radiographs: 4-week and 8-week timepoints, rat L3-L5; for fusion observed in rat spines (manual palpation): matrix of Oxy133, collagen and ceramic wetted with sterile water, two implants bilaterally in posterolateral space, 8-week sacrifice
Experimental: FIG. 6 illustrates uses of a formulation of compression resistant implants having 20 mg of Oxy133 on each side of the implant, in accordance with the implants described herein. […] Bone growth in rat test subjects can be seen after 4 and 8 weeks post-implantation, and fusion was confirmed by manual palpation of the spine segments at 8 weeks. […] A dry composition of a matrix containing Oxy133, collagen and ceramic as described herein was prepared and wetted with sterile water to be implanted in rat spines as shown in FIG. 6. The wetted matrix was cut in half with a razor blade to yield two halves. The two implants were molded into cylindrical shapes prior to insertion and were positioned bilaterally in the posterolateral space of each test subject. Each implant contained 20 mg Oxy133. Radiographs were taken roughly 10 minutes after the procedure, 4 weeks after the procedure, and 8 weeks after the procedure. […] Fusion was tested at 8-week sacrifice by manual palpation. […] A dry composition of a matrix containing Oxy133, collagen and ceramic as described herein was prepared and wetted with sterile water to be implanted in rat spines as shown in FIG. 6. The wetted matrix was cut in half with a razor blade to yield two halves. The two implants were molded into cylindrical shapes prior to insertion and were positioned bilaterally in the posterolateral space of each test subject. Each implant contained […] Oxy133. Radiographs were taken roughly 10 minutes after the procedure, 4 weeks after the procedure, and 8 weeks after the procedure. […] Fusion was tested at 8-week sacrifice by manual palpation.

CCCCCC[C@](C)(O)[C@H]1CC[C@H]2[C@@H]3C[C@H](O)[C@H]4C[C@@H](O)CC[C@]4(C)[C@H]3CC[C@@]21C [Oxy133, (3S,5S,6S,8R,9S,10R,13S,14S,17S)-17-((S)-2-hydroxyoctan-2-yl)-10,13-dimethylhexadecahydro-1H-cyclopenta [a]phenanthrene-3,6-diol]
solubility in water [1]: only slightly soluble or insoluble in water
spinal fusion (figure legend) ([2]; 20 mg of Oxy133 on each side, FIG. 6): yielded spinal fusion
spinal fusion (figure legend) ([2]; 125 mg of Oxy133 on each side, FIG. 7): yielded spinal fusion
bridging bone on radiographs ([2]; each implant 20 mg Oxy133): promoted bridging bone across the transverse processes of L3-L5
bridging bone on radiographs ([2]; each implant 125 mg Oxy133): promoted bridging bone across the transverse processes of L3-L5
fusion observed in rat spines (manual palpation) ([2]; each implant 20 mg Oxy133): 100%
fusion observed in rat spines (manual palpation) ([2]; each implant 125 mg Oxy133): 100%
